Reference: the supplement of paper PMC10331698
± gives the standard deviation of the averaged measurements.

What was measured:
Assay in all cases: level (log10 ratio to DMSO vehicle control); higher = higher biomarker level / cell amount than vehicle control
Details in all cases: in DMSO
[1] = compound: O=S(=O)(O)C(F)(F)C(F)(F)C(F)(F)C(F)(F)C(F)(F)C(F)(F)C(F)(F)C(F)(F)F [Potassium perfluorooctanesulfonate]
Protocol: (§1)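 BioMAP Diversity Plus panel of 12 human primary cell co-culture systems (3C, 4H, LPS, SAg, BT, BF4T, BE3C, CASM3C, HDF3CGF, KF3CT, MyoF, Mphg). Compounds were added 1 h before stimulation and left for 24 h (MyoF 48 h; BT 72 h for soluble read-outs or 6 d for IgG). Biomarkers were read by ELISA, cytotoxicity by SRB, PBMC viability and proliferation by Alamar Blue. Each well value was divided by the mean of 8 DMSO control wells on the same plate and log10 transformed; duplicate blinded samples were tested at 4 concentrations.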

[2] = compound: C=C(C)C(=O)OCC(F)(F)C(F)(F)C(F)(F)C(F)(F)C(F)(F)C(F)(F)C(F)(F)F
Protocol: as §1

[3] = compound: O=P(O)(O)CCC(F)(F)C(F)(F)C(F)(F)C(F)(F)C(F)(F)C(F)(F)C(F)(F)C(F)(F)F [((Perfluorooctyl)ethyl)phosphonic acid]
Protocol: as §1

Test System	level (log10) ([1]; 6700 nM)	level (log10) ([1]; 20000 nM)	level (log10) ([1]; 60000 nM)	level (log10) ([2]; 6700 nM)	level (log10) ([2]; 20000 nM)	level (log10) ([3]; 6700 nM)	level (log10) ([3]; 20000 nM)	level (log10) ([3]; 60000 nM)
BE3C:uPA	0.0125 ± 0.0092	-0.028 ± 0.0099	-0.036 ± 0.016	-0.008 ± 0.011	-0.004 ± 0.021	0.014 ± 0.0014	0.022 ± 0.0014	0.023 ± 0.0014
lMphg:IL-1alpha	-0.003 ± 0.028	0.0235 ± 0.015	0.0125 ± 0.012	-0.0265 ± 0.029	0.005 ± 0.13	-0.014 ± 0.0099	-0.0245 ± 0.025	0.02 ± 0.0042
3C:CCL2/MCP-1	-0.056 ± 0.098	-0.0125 ± 0.0035	0.009 ± 0.02	-0.013 ± 0.0042	0.018 ± 0.025	0.0005 ± 0.0092	-0.0115 ± 0.0078	-0.0085 ± 0.06
BE3C:Keratin 8/18	0.0225 ± 0.00071	0.013 ± 0.0085	-0.0155 ± 0.019	-0.008 ± 0.017	-0.028 ± 0.027	-0.015 ± 0.011	-0.012 ± 0.0028	-0.006 ± 0.021
KF3CT:uPA	-0.011 ± 0.0099	-0.004 ± 0.011	-0.027	0.0105 ± 0.0092	0.009 ± 0.0085	0.0065 ± 0.018	0.003 ± 0.016	0.0025 ± 0.0092
CASM3C:Proliferation	-0.0125 ± 0.033	0.006 ± 0.042	0.023 ± 0.0099	0.0065 ± 0.033	-0.022 ± 0.018	-0.0545 ± 0.005	-0.062 ± 0.044	-0.101 ± 0.03
CASM3C:CD142/Tissue Factor	-0.016 ± 0.041	-0.014 ± 0.023	-0.0265 ± 0.029	0.002 ± 0.0057	-0.0195 ± 0.0021	-0.0235 ± 0.019	-0.006 ± 0.0099	0.046 ± 0.079
KF3CT:CXCL10/IP-10	-0.0075 ± 0.032	-0.0015 ± 0.016	-0.0335 ± 0.012	0.0075 ± 0.005	-0.015 ± 0.011	0.0105 ± 0.028	0.023 ± 0.013	0.0205 ± 0.005
MyoF:TIMP-1	0.069 ± 0.02	0.0605 ± 0.03	0.111 ± 0.0021	0.0225 ± 0.029	0.035 ± 0.017	0.0415 ± 0.0078	0.0765 ± 0.0078	0.0715 ± 0.026
lMphg:CD62E/E-Selectin	0.0145 ± 0.0092	0.052 ± 0.023	0.204	-0.0215 ± 0.0021	-0.021 ± 0.0042	0.011 ± 0.0014	0.027 ± 0.0085	0.113 ± 0.018
MyoF:Decorin	0.0305 ± 0.019	0.0305 ± 0.013	0.0565 ± 0.013	-0.011 ± 0.04	0.0175 ± 0.081	0.0185 ± 0.00071	0.028 ± 0.0099	0.0305 ± 0.046
KF3CT:CXCL9/MIG	-0.0065 ± 0.0035	0.003 ± 0.0042	0.008 ± 0.027	0.007 ± 0.0028	0.006 ± 0.0028	-0.0095 ± 0.0078	0 ± 0.0071	-0.0225 ± 0.0092
MyoF:alpha-SM Actin	-0.0215 ± 0.079	-0.027 ± 0.075	-0.0175 ± 0.066	0.0085 ± 0.022	-0.0005 ± 0.0092	0.0005 ± 0.046	-0.001 ± 0.038	0.004 ± 0.031
KF3CT:CXCL8/IL-8	-0.006 ± 0.017	-0.0045 ± 0.0092	-0.0185 ± 0.015	-0.0025 ± 0.019	0.009 ± 0.033	0.022 ± 0.0014	0.0245 ± 0.0078	0.032 ± 0.0028
lMphg:sIL-10	0.015 ± 0.0014	-0.0445 ± 0.0092	-0.647 ± 0.025	-0.0725 ± 0.016	-0.121 ± 0.31	-0.0215 ± 0.012	-0.062 ± 0.017	-0.263 ± 0.025
CASM3C:HLA-DR	-0.0015 ± 0.0021	-0.035 ± 0.028	-0.0235 ± 0.054	-0.015 ± 0.017	-0.0125 ± 0.0021	-0.0265 ± 0.012	-0.048	-0.03 ± 0.081
BE3C:MMP-9	-0.0035 ± 0.012	-0.13 ± 0.013	-0.126 ± 0.024	0 ± 0.0042	-0.0005 ± 0.0092	-0.0155 ± 0.026	-0.006 ± 0.044	0.014 ± 0.016
